The values below come from US5744600A, “Phosphonomethoxy carbocyclic nucleosides and nucleotides” (Institute of Organic Chemistry and Biochemistry of the …, priority 1994, dated 1998).

For series [1], the system named is herpes simplex virus Type 2 (HSV-2) [G strain]. As to the kind of experiment: HSV-2 plaque reduction assay in vero cells. The class given is cell-based. The following applies: Human alphaherpesvirus 2, Table II, racemic series, 48 hour incubation, read-out: HSV-2 in vitro antiviral activity (IC50). The method, then: (§1) The antiviral activity of compounds of the invention, against both herpes viruses and human immunodeficiency virus (HIV), are presented in Table II. In Table II, the numbers in parenthesis in the columns reporting HIV activity represent the TD50, that is, the dosage at which toxic effects are observed in 50% of the population of cells tested.
(§2) The compounds were evaluated for antiviral activity in vitro by a standard plaque reduction assay. Experiments were conducted with vero cells (African Green Monkey Kidney cells) infected with herpes simplex virus Type 1 (HSV-1) [BW^s strain, C. D. Sibrack, et al., Infect. Disc., 1982, 146, 673] and herpes simplex virus Type 2 (HSV-2) [G strain, obtained from American Tissue Culture Collection, Rockville, Md.] and with MRC-5 cells (human embryonic lung (diploid) cells) infected with human cytomegalovirus (HCMV) [AD169 strain, obtained from American Tissue Culture Collection, Rockville, Md].
(§3) Briefly, confluent cell monolayers in 24-well plates were infected with 3-50 plaque-forming units of virus in 100 μl of phosphate-buffered saline. After a 1 hour adsorption period, residual inoculum was replaced with 1 mL of the appropriate dilution of the test compound which had been freshly prepared in Eagle's minimal essential medium ("EMEM") containing 10% fetal bovine serum. After a 48 hour incubation period at 37° C. in a 5% CO2 atmosphere, cell monolayers were fixed and stained with Carbol fuchsin and plaques were counted. The antiviral potency of the compound was determined by IC50, the inhibitory concentration necessary to reduce the number of plaques by 50% of those in the virus control cultures.
Background: Plaques are areas of infected cells; plaque reduction assays count them against a control.

The test system of series [2] is Murine leukemia virus (MuLV). As to the kind of experiment: MuLV UV-XC plaque assay in SC-1 cells. The following applies: SC1, Table II, racemic series, read-out: MuLV in vitro antiviral activity (IC50). The class given is cell-based. The method, then: The compounds were evaluated for antiviral activity against Murine leukemia virus (MuLV) strains using the UV-XC plaque assay (Rowe, et. al., Virology, 42:1136, 1970).
The MuLV strains were grown in fetal mouse cells, (SC-1) and used for antiviral tests using the UV-XC plaque assay. Briefly, SC-1 cells are grown as monolayers in 4-well tissue culture plates and inoculated with approximately 50-100 plaque forming units of MuLV in 0.5 ml of 5% EMEM containing 20 μg/ml DEAE/Dextran. After 1 hr. adsorption, the inoculum is removed and 5 ml of 5% EMEM containing three-fold dilutions of the appropriate drug are added. Five days later, the cultures are UV-irradiated with an ultraviolet lamp and rat XC sarcoma cells are added to the cultures. Three to four days after UV-irradiation, the cell cultures are stained with Giemsa stain and the plaques are counted. Antiviral activity is expressed in terms of the reduction in the mean number of UV-XC plaques counted in the drug treated, virus-infected cultures compared with mean number of plaques counted in untreated, virus-infected control cultures. IC50 values are calculated by determining the concentration of compound necessary to reduce the number of plaques by 50% compared to those in the virus control cultures.

The test system of series [3] is herpes simplex virus Type 1 (HSV-1) [BW^s strain]. Briefly: HSV-1 plaque reduction assay in vero cells. Format: cell-based. The following applies: Human alphaherpesvirus 1, Table II, racemic series, 48 hour incubation, read-out: HSV-1 in vitro antiviral activity (IC50). Here is the method:
as §1, §2, §3

For series [4], the system named is human cytomegalovirus (HCMV) [AD169 strain]. Briefly: HCMV plaque reduction assay in MRC-5 cells. The class given is cell-based. The following applies: Human betaherpesvirus 5, AD169, MRC5, Table II, racemic series, 48 hour incubation, read-out: HCMV in vitro antiviral activity (IC50). Here is the method:
as §2, §3

In series [5] the test system is VZV (varicella zoster virus, strain ELLEN). As to the kind of experiment: VZV plaque inhibition assay in WI-38 cells. Format: cell-based. The following applies: 5-7 days. The method, then: (§4) Additional assays were performed in cell culture systems to determine the concentrations of compounds that are effective in preventing several kinds of viral infections. In Tables III and IV, the anti-HIV results using CEM cells were obtained using the same protocol described earlier. Figures in parenthesis represent the observed TD50 in the HIV screens indicated. Abbreviations:
(§5) HSV-1 (herpes simplex virus type 1, strain Schooler), HSV-2 (herpes simplex virus type 2, strain 186), VZV (varicella zoster virus, strain ELLEN), HCMV (human cytomegalovirus, strain AD 169 HIV (human immunodeficiency virus, strain HTLV-IIIB).
(§6) Virus was adsorbed to WI-38 cell culture monolayers in 6 well culture plates (Costar, Cambridge, Mass.) for 1 hour prior to addition of maintenance medium containing duplicate dilutions of the test compound. Inhibition of plaque development was evaluated on fixed and stained monolayers after 4 days incubation at 37° C. for HSV-1 and HSV-2, and after 5-7 days incubation at 37° C. for HCMV and VZV. ID50 values were determined from the drug concentration which conferred at least a 50% plaque reduction compared to virus controls.

For series [6], the system named is HCMV (human cytomegalovirus, strain AD 169). As to the kind of experiment: HCMV plaque inhibition assay in WI-38 cells. The class given is cell-based. The conditions noted are these: 5-7 days. The method, then: as §4, §5, §6
Series [7] deals with HSV-2 (herpes simplex virus type 2, strain 186). As to the kind of experiment: HSV-2 plaque inhibition assay in WI-38 cells. The class given is cell-based. The following applies: Human alphaherpesvirus 2, 96 h, 4 days. Here is the method: as §4, §5, §6
Series [8] relates to HSV-1 (herpes simplex virus type 1, strain Schooler). As to the kind of experiment: HSV-1 plaque inhibition assay in WI-38 cells. The class given is cell-based. The following applies: Human alphaherpesvirus 1, 96 h, 4 days. Here is the method:
as §4, §5, §6

The conditions of series [9]: Herdewijn, et al., J. Med. Chem. (1985); cited from earlier work.
In a further series the test system is murine leukemia L1210. The following applies: in vitro; Herdewijn, et al., J. Med. Chem. (1985); cited from earlier work.
The conditions of series [10]: Herdewijn, et al., J. Med. Chem. (1985); cited from earlier work. This is another data set of the same source.
Series [11] concerns phytopathogenic bacteria and fungi. The following applies: Kusaka, et al., J. Antibiotics, (1968); cited from earlier work.
The mark [12] stands for this setting: Human alphaherpesvirus 3, Table III, racemic series, read-out: VZV in vitro antiviral activity (ID50).
The mark [13] stands for this setting: Human betaherpesvirus 5, Table III, racemic series, read-out: HCMV in vitro antiviral activity (ID50).
[14] abbreviates: Table III, racemic series, read-out: HSV-2 in vitro antiviral activity (ID50).
The mark [15] stands for this setting: Table III, racemic series, read-out: HSV-1 in vitro antiviral activity (ID50).

Values after ≈ are worked out from the molar mass of the structure shown. Like-named read-outs stand apart in the source and are kept apart here.

Take `Nc1nc2c(ncn2C2CC(OCP(=O)(O)O)C(O)C2O)c(=O)[nH]1` (centres unmarked): the IC50 in [1] is above 100 µg/mL; in [2], above 100 µg/mL; in series [3], above 100 µg/mL; in series [4], 4.5 µg/mL (≈ 12.5 µM).
As to `Nc1nc2c(ncn2C2CC(OCP(=O)(O)O)C(O)C2F)c(=O)[nH]1` (centres unmarked), the IC50 in [1] came to 22 µg/mL (≈ 60.6 µM); in series [4], 0.36 µg/mL (≈ 0.991 µM).
On to `Nc1ncnc2c1ncn2C1CC(OCP(=O)(O)O)C(O)C1O` (centres unmarked), for which the IC50 in [1], in series [2] and in series [4] was above 100 µg/mL each time.
With `Cc1cn(C2C=CC(OCP(=O)(O)O)C2)c(=O)[nH]c1=O` (centres unmarked), the IC50 in series [1] was above 134 µg/mL; in series [3], above 140 µg/mL.
In the case of `Nc1nc2c(ncn2C2CC(OCP(=O)(O)O)CC2F)c(=O)[nH]1` (centres unmarked), the IC50 in [5] (setting [12]) lay in the range of 10 to 33 µg/mL (≈ 28.8 to 95 µM); in series [6] (setting [13]) it was 10 to 25 µg/mL (≈ 28.8 to 72 µM); in [7] (setting [14]), 10 to 25 µg/mL (≈ 28.8 to 72 µM); in series [8] (setting [15]), 10 to 25 µg/mL (≈ 28.8 to 72 µM).
Take `Nc1ncnc2c1ncn2[C@@H]1C[C@H](CO)[C@@H](O)[C@H]1O` [aristeromycin]: the cytotoxicity entry in series [9] is “cytotoxic”. The “activity against murine leukemia L1210” value in the series with murine leukemia L1210 is “active”. The antiviral activity result in series [10] is “has antiviral activity”. In series [11], the “growth inhibitory activity against phytopathogenic bacteria and fungi” value is on record as “growth inhibitory activity”.
On to `Nc1nc2c(ncn2C2C=CC(OCP(=O)(O)O)C2)c(=O)[nH]1` (centres unmarked) [drawing 15], for which the IC50 in [1] is above 50 µg/mL; in series [2] it was 5.1 µg/mL (≈ 15.6 µM); in series [3], 13.5 µg/mL (≈ 41.3 µM); in [4], above 100 µg/mL.
Taken in the same sequence, the figures for `Nc1ncnc2c1ncn2C1C=CC(OCP(=O)(O)O)C1` (centres unmarked) [drawing 24] were above 82 µg/mL, 0.84 µg/mL (≈ 2.7 µM), above 116 µg/mL and above 100 µg/mL.
As for `Nc1ncnc2c1ncn2C1CC(OCP(=O)(O)O)C(O)C1F` (centres unmarked) [drawing 27], the figures for the IC50 in series [1] and in series [4] were above 100 µg/mL and 85 µg/mL (≈ 245 µM), respectively.
On to `Nc1nc2c(ncn2C2C=CC(OCP(=O)(O)O)C2)c(=O)[nH]1` (centres unmarked) [drawing 30], for which the IC50 in series [5] (setting [12]) is 12 to 121 µg/mL (≈ 36.7 to 370 µM); in series [6] (setting [13]), above 100 µg/mL; in series [7] (setting [14]), above 72 µg/mL; in series [8] (setting [15]), above 72 µg/mL.
Take `Nc1ncnc2c1ncn2C1C=CC(OCP(=O)(O)O)C1` (centres unmarked) [drawing 33]: the IC50 in series [5] (setting [12]), in [6] (setting [13]), in [7] (setting [14]) and in [8] (setting [15]) was above 100 µg/mL throughout.
Consider `Nc1ncnc2c1ncn2C1CC(OCP(=O)(O)O)C(O)C1F` (centres unmarked) [drawing 67], for which the IC50 in series [5] (Human alphaherpesvirus 3, Table IV, enantiomeric series (1R, 4S), read-out: VZV in vitro antiviral data (ID50)) was 5 to 10 µg/mL (≈ 14.4 to 28.8 µM); in series [6] (Human betaherpesvirus 5, Table IV, enantiomeric series (1R, 4S), read-out: HCMV in vitro antiviral data (ID50)), above 100 µg/mL; in series [7] (Table IV, enantiomeric series (1R, 4S), read-out: HSV-2 in vitro antiviral data (ID50)), 10 to 25 µg/mL (≈ 28.8 to 72 µM); in series [8] (Table IV, enantiomeric series (1R, 4S), read-out: HSV-1 in vitro antiviral data (ID50)), 10 to 25 µg/mL (≈ 28.8 to 72 µM).
